Test results: PMC6385020 (Molecules, 2019)
Several values for one entry are separate records, joined by “and”; a condition that tells them apart may be missing. Equal entries are not always repeated. Entries after “also recorded” stand apart in the source; their conditions may differ.

How the values were obtained:
[1] = test system: all the tested G4s structures; design: method as in PMID 21528379; conditions: cited from earlier work
[2] = test system: 22AG G4; design: method as in PMID 28825434; conditions: K+100 buffer, 20 °C; cited from earlier work
[3] = test system: c-myc G4; design: method as in PMID 21528379; conditions: cited from earlier work
[4] = test system: 21CTA G4; design: method as in PMID 21528379; conditions: cited from earlier work
[5] = test system: c-myc G4; assay: PhenDV G4-FID assay; type: binding; conditions: PhenDV 1.5 eq, K+100 buffer
Experimental: (§1) For the G4-FID assay, the oligonucleotides were dissolved in K^+100 buffer (10 mM lithium cacodylate buffer pH 7.3, 100 mM KCl, 1% DMSO). Oligonucleotide concentrations were determined on the basis of their absorbance at 260 nm. For the fluorimetric titration, the oligonucleotides were dissolved in K^+100 buffer without DMSO. For the FRET-melting assay, the oligonucleotides were dissolved in K^+1 buffer (10 mM lithium cacodylate buffer pH 7.3, 1 mM KCl, 99 mM LiCl) except for F-21-T. F-21-T was dissolved in K^+10 buffer (10 mM lithium cacodylate buffer pH 7.3, 10 mM KCl, 90 mM LiCl).
(§2) Prior to use, all oligonucleotides were pretreated by heating at 95 °C for 5 min, then rapidly cooled to 4 °C to favor the intramolecular folding by kinetic trapping. Duplex-DNA ds26 was prepared by heating the self-complementary strand at 90 °C for 5 min in K^+1 buffer followed by a slow cooling over 6 h.
(§3) Each G4-FID assay was performed in a 96-well Non-Binding Surface black with black bottom polystyrene microplates (Corning). Every ligand was tested on a line of the microplate, in duplicate. The microplate was filled with (a) K^+100 solution (qs for 200 μL), (b) 10 μL of a solution of pre-folded oligonucleotides (5 μM) and fluorescent probe (TO/TO-PRO-3 (10 μM—2 eq) or PhenDV (7,5 µM—1.5 eq)), and (c) an extemporaneously prepared 5 μM ligand solution in K^+100 buffer (0 to 100 μL) along the line of the microplate, i.e., from column A to column H: 0, 0.125, 0.25, 0.375, 0.5, 0.625, 0.75, 1.0, 1.25, 1.5, 2.0, and 2.5 μM. After 5 min of orbital shaking at 500 rpm, fluorescence is measured using the following experimental parameters: positioning delay of 0.5 s, 20 flashes per well, emission/excitation filters for TO at 485/520, TO-PRO-3 at 620/670, and PhenDV at 355/520 gain adjusted at 80% of the fluorescence from the most fluorescent well (i.e., a well from column A for TO and a well from column H).
(§4) In the case of PhenDV, the fluorescence of the unbound probe is not negligible. The percentage of displacement becomes (2) % PhenDV Displacement=F−F0/Fligand+probe−F0
(§5) The PhenDV displacement is calculated from the fluorescence intensity F; F(ligand+probe), which refers to the fluorescence of the probe in presence of the ligand (without G4); and F0, which is the fluorescence without added ligand. The term F(ligand+probe) is necessary as the ligand can quench the fluorescence of the probe. The percentage of displacement is then plotted as a function of the concentration of the added ligand. The DNA affinity was evaluated by the concentration of ligand required to decrease the fluorescence of the probe by 50%, was noted DC50, and was determined after non-linear fitting of the displacement curve.

[6] = test system: 22AG human telomeric sequence G4; assay: PhenDV G4-FID assay; type: binding; conditions: PhenDV 1.5 eq, K+100 buffer
Experimental: as §1, §2, §3, §4, §5

[7] = test system: CEB25-WT minisatellite sequence G4; assay: PhenDV G4-FID assay; type: binding; conditions: PhenDV 1.5 eq, K+100 buffer
Experimental: as §1, §2, §3, §4, §5

[8] = test system: c-myc G4; assay: TO G4-FID assay; type: binding; conditions: TO 2 eq, K+100 buffer
Experimental: as §1, §2, §3
(§6) The percentage of TO displacement is calculated from the fluorescence intensity (F), using (1) % TO displacement=1−F/F0 where F0 is the fluorescence from the fluorescent probe bound to DNA without added ligand.
as §5

[9] = test system: 22AG human telomeric sequence G4; assay: TO G4-FID assay; type: binding; conditions: TO 2 eq, K+100 buffer
Experimental: as §1, §2, §3, §6, §5

[10] = test system: CEB25-WT minisatellite sequence G4; assay: TO G4-FID assay; type: binding; conditions: TO 2 eq, K+100 buffer
Experimental: as §1, §2, §3, §6, §5

[11] = test system: G4-DNA structures (F-21-T, F-myc-T, F-21CTA-T, F-CEB25-WT-T); assay: FRET-melting assay (ligand-induced stabilization); type: binding, human
Experimental: as §1, §2
The stabilization of the compounds with a quadruplex-structure was monitored via FRET-melting assay performed in 96-well plates on a real-time PCR apparatus 7900HT Fast Real-Time PCR System as follows: 5 min at 25 °C and then an increase of 0.5 °C every minute until 95 °C. Each experimental condition was tested and replicated in a volume of 25 μL for each sample. The FRET-melting assay was performed with three dual fluorescently labeled DNA oligonucleotide sequences oligonucleotides. The donor fluorophore was 6-carboxyfluorescein, FAM, and the acceptor fluorophore was 6-carboxytetramethylrhodamine, TAMRA. The 96-well plates (Applied Biosystems) were prepared by aliquoting the annealed DNA (0.2 μM in K^+1 or K^+10 buffer) into each well, followed by 1 μL of the ligand ([…] (5 eq) in DMSO). For competition experiments, duplex competitors were added to 200 nM quadruplex sequences at final concentrations of 3.0 μM (15 eq) and 10.0 μM (50 eq), with a total reaction volume of 25 μL, with the labeled oligonucleotide (0.2 μM) and the ligand (1 μM). Measurements were made with excitation at 492 nm and detection at 516 nm. The change in the melting temperature at 1.0 μm compound concentration, ΔTm (1.0 μM), was calculated from at least two experiments by subtraction of the blank from the averaged melting temperature of each compound (1.0 μM). The final analysis of the data was carried out using Origin Pro 8.6 data analysis.

[12] = test system: CCD19Lu normal lung cell line; assay: Cell growth (proliferation), 96 h treatment; type: cell-based, human
Experimental: (§7) The ovarian carcinoma cell lines and human normal lung cells were purchased from ATCC and were grown in complete RPMI medium (ovarian) and DMEM (human lung cells) supplemented with 10% fetal calf serum, in the presence of penicillin, streptomycin. The resistance of A2780cis cells to cisplatin was maintained by monthly treatment with 1 µM cisplatin for 4 days. Concentrated stock solutions of complexes were conserved at −20 °C (DMSO/Water) and freshly diluted in water just before the experiments. Cells were treated with various concentrations of platinum complexes at 37 °C under humidity and 5% CO2 conditions for 96 h. Cellular growth was quantified using the particle counter MOXI (VWR).

[13] = test system: A2780cis cisplatin-resistant ovarian cancer cell line; assay: Cell growth (proliferation), 96 h treatment; type: cell-based, human
Experimental: as §7

[14] = test system: A2780 ovarian cancer cell line; assay: Cell growth (proliferation), 96 h treatment; type: cell-based, human
Experimental: as §7

[15] = test system: 21CTA human telomeric sequence variant G4; type: binding; conditions: PhenDV 1.5 eq, K+100 buffer
Experimental: as §1, §2, §3, §4, §5

[16] = test system: 21CTA human telomeric sequence variant G4; type: binding; conditions: K+100 buffer; for % of TO displacement at 1 µM of ligand: TO 2 eq; for % of TOPRO3 displacement at 1 µM of ligand: TO-PRO-3 2 eq
Experimental: as §1, §2, §3, §6, §5

[17] = test system: G4 structures (22AG, c-myc, 21CTA, CEB25-WT); assay: TO-PRO-3-G4-FID assay, G4 structures; type: binding
Experimental: as §1, §2, §3, §6, §5

[18] = test system: c-myc (myc22) (DNA, G4) TGAGGGTGGGTAGGGTGGGTAA; assay: G4-FID, PhenDV displacement; conditions: 100 mM KCl; 10 mM lithium cacodylate pH 7.3, 1% DMSO; PhenDV displaced; 1 µM compound
[19] = test system: c-myc G4; assay: TO-PRO-3 G4-FID assay; type: binding; conditions: TO-PRO-3 2 eq, K+100 buffer
Experimental: as §1, §2, §3, §6, §5

[20] = test system: 22AG human telomeric sequence G4; assay: TO-PRO-3 G4-FID assay; type: binding; conditions: TO-PRO-3 2 eq, K+100 buffer
Experimental: as §1, §2, §3, §6, §5

[21] = test system: CEB25-WT minisatellite sequence G4; assay: TO-PRO-3 G4-FID assay; type: binding; conditions: TO-PRO-3 2 eq, K+100 buffer
Experimental: as §1, §2, §3, §6, §5

Row | Compound | affinity constants towards all the tested G4s structures (Ka) [1] | % of PhenDV displacement at 1 µM of ligand [5] | % of PhenDV displacement at 1 µM of ligand [6] | % of PhenDV displacement at 1 µM of ligand [7] | % of TO displacement at 1 µM of ligand [8] | % of TO displacement at 1 µM of ligand [9] | % of TO displacement at 1 µM of ligand [10] | % of PhenDV displacement at 1 µM of ligand [15] | % of TO displacement at 1 µM of ligand [16] | % of TOPRO3 displacement at 1 µM of ligand [16] | also measured
1 | CN1/C(=C/C=C/c2cc[n+](CCC[N+](C)(C)C)c3ccccc23)Sc2ccccc21.[I-].[I-] [TO-PRO-3] | ~ 10^6 M^−1 | – | – | – | – | – | – | – | – | – | –
2 | CN1C(=Cc2cc[n+](C)c3ccccc23)Sc2ccccc21 [TO, Thiazole Orange] | ~ 10^6 M^−1 | – | – | – | – | – | – | – | – | – | KA [2]: 1 × 10^6 (a) M^−1; KA [3]: 5 × 10^6 M^−1 and 5 × 10^6 (b) M^−1; KA [4]: 1 × 10^6 (b) M^−1
3 | F[P-](F)(F)(F)(F)F.[Pt+][C]#Cc1ccccc1.c1ccc(-c2cccc(-c3ccccn3)n2)nc1 [Pt(PA)-tpy, Phenylethylny-(2,6-bis(pyridin-2-yl)pyridine)-platinum(II) Hexafluorophosphate] | – | 2% | 20% | 13% | 59% | 55% | 37% | 34% | 52% | 3% | ∆Tm (ligand-induced stabilization, FRET-melting) [11]: complete lack of stabilization properties; also recorded: no stabilization; IC50 [12]: 120 nM; IC50 [13]: 50 nM; Resistance Factor (IC50ratio A2780cis/A2780) [13]: 0.6; IC50 ([14]; A2780, 96 h treatment): 80 nM; IC50 in words ([14]; A2780 cell lines): active at nM concentration; TO-PRO-3 displacement [17]: weak displacement
4 | C[n+]1cc(NC(=O)c2ccc3ccc4ccc(C(=O)Nc5cc6ccccc6[n+](C)c5)nc4c3n2)cc2ccccc21 [PhenDC3, reference compound] | – | 85% | 92% | 99% | 96% | 95% | 90% | 100% | 95% | 83% | binding [18]: yes; % of TOPRO3 displacement at 1 µM of ligand [19]: 73%; % of TOPRO3 displacement at 1 µM of ligand [20]: 85%; % of TOPRO3 displacement at 1 µM of ligand [21]: 88%
